Laboratory results published in patent US20140220058A1, “VACCINE COMPOSITION FOR TRANSDERMAL OR MUCOSAL ADMINISTRATION” (NITTO DENKO CORPORATION, priority 2013, published 2014).
Entries after “also recorded” stand apart in the source; their conditions may differ.

What was measured:
IFN-γ producing cells [1] = test: Promotion of immunity induction using a mucosal vaccine (conclusion from Tables 4, 5 and 6); type: in vivo, mouse; settings: acid as component of sublingual liquid formulations
IFN-γ producing cells [2] = test: Promotion of immunity induction via transdermal immunization (conclusion from Tables 1, 2, 3, 8 and 10); type: in vivo, mouse; settings: acid as component of tape, liquid or cream formulations

Structure (SMILES)	promotion of immunity induction using a mucosal vaccine (in words) (IFN-γ producing cells [1])	promotion of immunity induction via transdermal immunization (in words) (IFN-γ producing cells [2])
O=C(O)CC(O)(CC(=O)O)C(=O)O [citric acid]	suitable; also recorded: particularly preferable	
CCCCCCCCCC(=O)O [decanoic acid]		suitable; also recorded: particularly preferable
CC(C)CCCCCCCCCCCCCCC(=O)O [isostearic acid]	suitable; also recorded: particularly preferable	suitable; also recorded: preferable
CC(O)C(=O)O (stereo not shown) [lactic acid]	suitable; also recorded: particularly preferable	suitable; also recorded: particularly preferable
CCCCCCCCCCCC(=O)O [lauric acid]		suitable; also recorded: particularly preferable
O=C(O)/C=C\C(=O)O [maleic acid]	suitable; also recorded: preferable	suitable; also recorded: preferable
O=C(O)CC(O)C(=O)O (stereo not shown) [malic acid]	suitable	suitable; also recorded: preferable
CS(=O)(=O)O [methanesulfonic acid]		suitable; also recorded: particularly preferable
CCCCCCCCCCCCCC(=O)O [myristic acid]	suitable; also recorded: particularly preferable	suitable; also recorded: particularly preferable
CCCCCCCC/C=C\CCCCCCCC(=O)O [oleic acid]		suitable; also recorded: preferable
CCCCCCCCCCCCCCCC(=O)O [palmitic acid]		suitable; also recorded: particularly preferable
O=C(O)c1ccccc1O [salicylic acid]	suitable	suitable; also recorded: particularly preferable
CCCCCCCCCCCCCCCCCC(=O)O [stearic acid]		suitable; also recorded: particularly preferable
